In one data set the target is T1, KRAS G12V (Homo sapiens, UniProt P01116, G12V).
T1 construct: K, N and HRAS G12V (full length) was cloned with Xho I and Bgl I to LgBit; expressed in transfected cells; host or cells: HeLa
Briefly: NanoBiT assay for RAS activation (KRAS G12V). The settings on record: Biochemical and cell based activity. The method, then:
N-terminal LgBiT and C-terminal SmBiT construct was purchased from Promega and K, N and HRAS G12V (full length) was cloned with Xho I and Bgl I to LgBit and CRAF Ras binding domain (1-149) was cloned with EcoRI and Bgl II to SmBit. For transfections, 1 μg or 2 μg of (12 well/6 well) plasmids were transfected into cells with 0.5 mM of PEI reagent in 100 μl or 200 μl PBS. One day after transfection, cells were harvested and seeded into 96 well white plates (Greiner) or 384 well white plate (Greiner). After an additional day the medium was changed to serum free DMEM and the cells were incubated for 2 h with the compounds according to the invention. NanoGlo assay was performed according to the manufacturer's instructions. The luminescence was measured using Tecan infinite (Tecan).

In a further data set the target is T2, elF4A1 (Homo sapiens, UniProt P60842).
T2 construct: endogenous in cells; host or cells: HeLa
Briefly: Dual luciferase assay for cap dependent translation initiation (eIF4A). The settings on record: Biochemical and cell based activity. The method, then: Dual luciferase assay for Cap-dependent translation initiation was performed in HeLa cells transfected with pFR_HCV_xb. […] After incubation, Dual luciferase reporter assay was performed according to the manufacturer's instruction and the luminescence was measured using a multiplate reader. Data were normalized to cells transfected with the indicated mutant and exposed to DMSO for 24 h. DMSO-treated cells were set as 1. The bars represent mean±SD from 3 independent experiments. The dot plot indicate the value from each experiment.

A short description of a further data set: In vitro DMPK: CLi Human. It is filed as in vitro ADME.

T1 sequence (P01116 1-188 isoform P01116-2 G12V): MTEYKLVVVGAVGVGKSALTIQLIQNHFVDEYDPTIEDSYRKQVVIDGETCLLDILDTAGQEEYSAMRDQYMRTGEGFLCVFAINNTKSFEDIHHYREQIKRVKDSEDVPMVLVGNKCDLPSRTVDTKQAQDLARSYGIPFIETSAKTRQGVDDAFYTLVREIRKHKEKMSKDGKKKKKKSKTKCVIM
T2 sequence (P60842 whole entry): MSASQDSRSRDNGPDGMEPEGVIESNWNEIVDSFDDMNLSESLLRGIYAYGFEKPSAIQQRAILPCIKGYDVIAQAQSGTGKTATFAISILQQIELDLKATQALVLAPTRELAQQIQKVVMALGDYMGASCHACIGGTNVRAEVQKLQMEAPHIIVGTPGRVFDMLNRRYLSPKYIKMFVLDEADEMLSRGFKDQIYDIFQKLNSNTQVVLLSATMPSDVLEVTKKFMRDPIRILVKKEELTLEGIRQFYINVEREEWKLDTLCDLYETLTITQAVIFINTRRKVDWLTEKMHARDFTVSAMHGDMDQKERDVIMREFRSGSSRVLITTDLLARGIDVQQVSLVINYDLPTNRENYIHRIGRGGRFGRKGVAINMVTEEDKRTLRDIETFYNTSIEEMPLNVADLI

On to `COc1cc(OC)c2c(c1)O[C@@]1(c3ccc(Cl)cc3)[C@H](c3cccc(F)c3)C[C@H](NC(=O)N3CCN(C)CC3)[C@@]21O` (single isomer, unassigned) [Compound 2], for which the results for the IC50 against KRAS G12V and against elF4A1 were 79 nM and 84 nM, respectively. Also, the “CLi Human” value in “In vitro DMPK: CLi Human” was determined as 5.5 µL/min/mg.
Take `COc1cc(OC)c2c(c1)O[C@@]1(c3ccc(Cl)cc3)[C@H](c3cccc(F)c3)C[C@H](NC(=O)N3CCCC3)[C@@]21O` (single isomer, unassigned) [Compound 5]: the IC50 (usually the concentration at which inhibition is half-maximal) against KRAS G12V came out at 95 nM; against elF4A1, 60 nM.
`COc1cc(OC)c2c(c1)O[C@@]1(c3ccc(Cl)cc3)[C@H](c3cccc(F)c3)C[C@H](NC(=O)NC(C)C)[C@@]21O` (single isomer, unassigned) [Compound 8]: the IC50 came out at 78 nM on KRAS G12V and 120 nM against elF4A1. The “CLi Human” value in “In vitro DMPK: CLi Human” turned out to be 31 µL/min/mg.
As for `CCN(CC)C(=O)N[C@H]1C[C@@H](c2cccc(F)c2)[C@]2(c3ccc(Cl)cc3)Oc3cc(OC)cc(OC)c3[C@]12O` (single isomer, unassigned) [Compound 11], the IC50 on KRAS G12V was 94 nM; at elF4A1, 75 nM.
With `COc1cc(OC)c2c(c1)OC1(c3ccc(Cl)cc3)[C@@H](c3cccc(F)c3)CC(NC(=O)N(C)C)C21O` (single isomer, unassigned) [Compound C2, reference compound], the half-inhibitory concentration (IC50) against KRAS G12V amounted to 55 nM; against elF4A1, 63 nM. Moreover, in the data set “In vitro DMPK: CLi Human”, the “CLi Human” value came out at 290 µL/min/mg.
Regarding `COc1cc(OC)c2c(c1)O[C@@]1(c3ccc(Cl)cc3)[C@H](c3cccc(F)c3)C[C@H](NC(=O)N3CCOCC3)[C@@]21O` [Compound 19], the IC50 came to 58 nM on KRAS G12V and 80 nM against elF4A1.
Regarding `COc1cc(OC)c2c(c1)O[C@@]1(c3ccc(C#N)cc3)[C@H](c3cccc(F)c3)C[C@H](NC(=O)N3CCC3)[C@@]21O` [Compound 36], the figures for the IC50 against KRAS G12V and on elF4A1 were 24 nM and 25 nM, respectively.
In the case of `COc1cc(OC)c2c(c1)O[C@@]1(c3ccc(C#N)cc3)[C@H](c3cccc(F)c3)C[C@H](NC(=O)N3CCOCC3)[C@@]21O` [Compound 37], the IC50 came to 19 nM at KRAS G12V and 24 nM against elF4A1. In the data set “In vitro DMPK: CLi Human”, the “CLi Human” value is 64 µL/min/mg.
As to `COc1cc(OC)c2c(c1)O[C@@]1(c3ccc(C#N)cc3)[C@H](c3cccc(F)c3)C[C@H](NC(=O)N3CCN(C)CC3)[C@@]21O` [Compound 38], the IC50 against KRAS G12V and at elF4A1 was 21 nM in each case.
Take `COc1cc(OC)c2c(c1)O[C@@]1(c3ccc(Cl)cc3)[C@H](c3cccc(F)c3)C[C@H](NC(=O)N3CCS(=O)(=O)CC3)[C@@]21O` [Compound 39]: the IC50 against KRAS G12V came to 32 nM; on elF4A1, 39 nM.
As to `COc1cc(OC)c2c(c1)O[C@@]1(c3ccc(Cl)cc3)[C@H](c3cccc(F)c3)C[C@H](NC(=O)N3CCC(N(C)C)CC3)[C@@]21O` [Compound 40], the IC50 turned out to be 97 nM on KRAS G12V and 143 nM on elF4A1.
For `COc1cc(OC)c2c(c1)O[C@@]1(c3ccc(Cl)cc3)[C@H](c3cccc(F)c3)C[C@H](NC(=O)N3CC(N(C)C)C3)[C@@]21O` [Compound 41], the figures for the IC50 on KRAS G12V and against elF4A1 were 50 nM and 55 nM, respectively.
In the case of `COc1cc(OC)c2c(c1)O[C@@]1(c3ccc(Cl)cc3)[C@H](c3cccc(F)c3)C[C@H](NC(=O)NCCO)[C@@]21O` [Compound 42], the results for the IC50 against KRAS G12V and at elF4A1 were 48 nM and 54 nM, respectively.
With `COc1cc(OC)c2c(c1)O[C@@]1(c3ccc(Cl)cc3)[C@H](c3cccc(F)c3)C[C@H](NC(=O)N3CC4CCC(C3)N4C)[C@@]21O` [Compound 43], the concentration for half-maximal inhibition (IC50) against KRAS G12V was found to be 57 nM; against elF4A1, 80 nM.
For the compound `COc1cc(OC)c2c(c1)O[C@@]1(c3ccc(C#N)cc3)[C@H](c3cccc(F)c3)C[C@H](NC(=O)N3CC4(COC4)C3)[C@@]21O` [Compound 47], the IC50 at KRAS G12V came to 41 nM; against elF4A1, 22 nM.
